Test results as given in patent US10722441B2, “Noreugenin glycoside derivatives” (Universitaet Hamburg, priority 2016, dated 2020).

System: reconstituted human epidermis with melanocytes of phototype II
Test: Tanning properties in reconstituted human epidermis with melanocytes; semiquantification of melanin content by Fontana-Masson staining and image analysis
Type: cell-based
Conditions: for Change of melanin content / pigmentation, in words: IBMX 100 μM vs untreated controls
Procedure: The epidermis with melanocytes of phototype II is reconstituted in an air/liquid interface system (directly at the air-liquid interface) in a culture medium from day 0 to day 4 for a complete differentiation. The culture is then continued from day 4 to day 14 in this same medium but without bovine pituitary extract (BPE). The test preparations were administered in the […] from day 4 to day 14. The medium and the test preparations are each added on day 4, day 7 and day 11. DMSO and THF are tested in parallel and IBMX (100 μM) is used as the positive reference.
After embedding in paraffin, a Fontana-Masson staining of the tissue sections is performed. The microscope slides are covered with a special medium and examined using a light microscope of the Leica DM2000 type with a digital camera. After staining, images are recorded and a quantification is performed by image analysis (on the basis of 12 images). For quantification of the melanin content in each image, the Leica QWin3 software is used. Two measurements are carried out. The first measurement gives the total intensity of the coloration, i.e., a lighter or darker melanin is reflected. The second measurement relates to the marked image area, i.e., the area of the epidermis containing the melanin. In these measurements all cell layers except the stratum corneum are included.
The procedure used was the same as that carried out in example 1 and 2. After determining the cytotoxic concentrations, substance (Ia) is tested at 8 μM, substance (Ib) at 40 μM (solvent: 0.1% THF) and substance (IIa) at 20 μM (solvent: 0.1% DMSO).
After determining the cytotoxic concentrations of these substances, substance (Ib) is tested at 40 μM in DMSO (0.1%), substance (IIa) is tested at 20 μM in DMSO (0.1%), the mixture of (Ib)/(IIa) is tested at 40/20 μM in DMSO (0.1% and rhamnose is tested at 40 μM in THF (0.2%).

[1] = first experiment, Ia 8 μM, Ib 40 μM vs THF, IIa 20 μM vs DMSO
[2] = second experiment, Ib 40 μM and IIa 20 μM vs DMSO, mixture 40/20 μM, rhamnose 40 μM

Structure (SMILES)	Change of melanin content / pigmentation, in words [1]	Change of melanin content / pigmentation, in words [2]	further results
Cc1cc(=O)c2c(O)cc(O[C@@H]3O[C@H](CO)[C@@H](O)[C@H](O)[C@H]3O)cc2o1 [Substance (Ia), 7-(β-D-glucopyranosyloxy)-5-hydroxy-2-methyl-4H-1-benzopyran-4-one]	unambiguous tendency to increase pigmentation		Quantification after Fontana-Masson staining, relative to the untreated controls (first experiment, 8 μM, day 4 to day 14): 125%
CC(C)Cn1c(=O)n(C)c(=O)c2[nH]cnc21 [IBMX, reference compound]	significant increase	significant increase	Quantification after Fontana-Masson staining, relative to the untreated controls (first experiment, IBMX 100 μM, positive reference, day 4 to day 14): 152% (p < 0.05); Quantification after Fontana-Masson staining, relative to the untreated controls (second experiment, IBMX 100 μM, positive reference): 150% (p < 0.01)
Cc1cc(=O)c2c(O)cc(O[C@@H]3O[C@@H](C)[C@H](O)[C@@H](O)[C@H]3O)cc2o1 [Substance (Ib), 7-[(6-deoxy-α-L-mannopyranosyl)oxy]-5-hydroxy-2-methyl-4H-1-benzopyran-4-one]	significant increase	significant increase	Quantification after Fontana-Masson staining, relative to the untreated controls (first experiment, 40 μM, solvent 0.1% THF, day 4 to day 14): 174% (p < 0.05); Quantification after Fontana-Masson staining, relative to the untreated controls (second experiment, 40 μM in DMSO (0.1%)): 167% (p < 0.01)
C[C@H](O)[C@H](O)[C@@H](O)[C@@H](O)C=O [Rhamnose, rhamnose, reference compound]		tendency to increase melanin synthesis is only faintly pronounced	Quantification after Fontana-Masson staining, relative to the untreated controls (second experiment, 40 μM in THF (0.2%)): 109%
Cc1cc(=O)c2c(O[C@@H]3O[C@@H](C)[C@H](O)[C@@H](O)[C@H]3O)cc(O)cc2o1 [Substance (IIa), 5-[(6-deoxy-α-L-mannopyranosyl)oxy]-7-hydroxy-2-methyl-4H-1-benzopyran-4-one]	significant increase	significant increase	Quantification after Fontana-Masson staining, relative to the untreated controls (first experiment, 20 μM, solvent 0.1% DMSO, day 4 to day 14): 143% (p < 0.05); Quantification after Fontana-Masson staining, relative to the untreated controls (second experiment, 20 μM in DMSO (0.1%)): 147% (p < 0.05)
